For assay [1], the target named is T1, von Hippel-Lindau disease tumor suppressor/ALK tyrosine kinase receptor/Nucleophosmin (Homo sapiens, UniProt Q9UM73+P06748+P40337). Description: Protac activity at VHL/NPM-ALK fusion protein in human SR cells assessed as degradation of ALK at 100 nM. It counts as cell-based. To be noted: TDE = time-dependent effect.
Target sequence in this assay (P06748 whole entry partner, the tested form may be a part): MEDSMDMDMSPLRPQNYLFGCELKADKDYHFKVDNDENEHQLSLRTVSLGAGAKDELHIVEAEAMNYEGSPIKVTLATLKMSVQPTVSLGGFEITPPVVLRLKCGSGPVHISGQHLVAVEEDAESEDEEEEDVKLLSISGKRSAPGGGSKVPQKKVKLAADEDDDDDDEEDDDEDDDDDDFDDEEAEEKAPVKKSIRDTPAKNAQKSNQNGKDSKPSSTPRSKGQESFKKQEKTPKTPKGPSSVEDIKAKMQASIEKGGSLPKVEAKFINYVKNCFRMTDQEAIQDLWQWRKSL
Target sequence in this assay (P40337 whole entry partner, the tested form may be a part): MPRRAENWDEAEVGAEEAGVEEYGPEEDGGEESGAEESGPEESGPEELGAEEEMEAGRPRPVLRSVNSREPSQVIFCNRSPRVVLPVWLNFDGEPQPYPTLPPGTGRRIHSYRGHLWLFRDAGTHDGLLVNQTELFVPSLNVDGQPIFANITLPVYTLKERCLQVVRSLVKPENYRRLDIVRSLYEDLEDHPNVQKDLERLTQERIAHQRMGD
Target sequence in this assay (Q9UM73 19-1620 limits assumed): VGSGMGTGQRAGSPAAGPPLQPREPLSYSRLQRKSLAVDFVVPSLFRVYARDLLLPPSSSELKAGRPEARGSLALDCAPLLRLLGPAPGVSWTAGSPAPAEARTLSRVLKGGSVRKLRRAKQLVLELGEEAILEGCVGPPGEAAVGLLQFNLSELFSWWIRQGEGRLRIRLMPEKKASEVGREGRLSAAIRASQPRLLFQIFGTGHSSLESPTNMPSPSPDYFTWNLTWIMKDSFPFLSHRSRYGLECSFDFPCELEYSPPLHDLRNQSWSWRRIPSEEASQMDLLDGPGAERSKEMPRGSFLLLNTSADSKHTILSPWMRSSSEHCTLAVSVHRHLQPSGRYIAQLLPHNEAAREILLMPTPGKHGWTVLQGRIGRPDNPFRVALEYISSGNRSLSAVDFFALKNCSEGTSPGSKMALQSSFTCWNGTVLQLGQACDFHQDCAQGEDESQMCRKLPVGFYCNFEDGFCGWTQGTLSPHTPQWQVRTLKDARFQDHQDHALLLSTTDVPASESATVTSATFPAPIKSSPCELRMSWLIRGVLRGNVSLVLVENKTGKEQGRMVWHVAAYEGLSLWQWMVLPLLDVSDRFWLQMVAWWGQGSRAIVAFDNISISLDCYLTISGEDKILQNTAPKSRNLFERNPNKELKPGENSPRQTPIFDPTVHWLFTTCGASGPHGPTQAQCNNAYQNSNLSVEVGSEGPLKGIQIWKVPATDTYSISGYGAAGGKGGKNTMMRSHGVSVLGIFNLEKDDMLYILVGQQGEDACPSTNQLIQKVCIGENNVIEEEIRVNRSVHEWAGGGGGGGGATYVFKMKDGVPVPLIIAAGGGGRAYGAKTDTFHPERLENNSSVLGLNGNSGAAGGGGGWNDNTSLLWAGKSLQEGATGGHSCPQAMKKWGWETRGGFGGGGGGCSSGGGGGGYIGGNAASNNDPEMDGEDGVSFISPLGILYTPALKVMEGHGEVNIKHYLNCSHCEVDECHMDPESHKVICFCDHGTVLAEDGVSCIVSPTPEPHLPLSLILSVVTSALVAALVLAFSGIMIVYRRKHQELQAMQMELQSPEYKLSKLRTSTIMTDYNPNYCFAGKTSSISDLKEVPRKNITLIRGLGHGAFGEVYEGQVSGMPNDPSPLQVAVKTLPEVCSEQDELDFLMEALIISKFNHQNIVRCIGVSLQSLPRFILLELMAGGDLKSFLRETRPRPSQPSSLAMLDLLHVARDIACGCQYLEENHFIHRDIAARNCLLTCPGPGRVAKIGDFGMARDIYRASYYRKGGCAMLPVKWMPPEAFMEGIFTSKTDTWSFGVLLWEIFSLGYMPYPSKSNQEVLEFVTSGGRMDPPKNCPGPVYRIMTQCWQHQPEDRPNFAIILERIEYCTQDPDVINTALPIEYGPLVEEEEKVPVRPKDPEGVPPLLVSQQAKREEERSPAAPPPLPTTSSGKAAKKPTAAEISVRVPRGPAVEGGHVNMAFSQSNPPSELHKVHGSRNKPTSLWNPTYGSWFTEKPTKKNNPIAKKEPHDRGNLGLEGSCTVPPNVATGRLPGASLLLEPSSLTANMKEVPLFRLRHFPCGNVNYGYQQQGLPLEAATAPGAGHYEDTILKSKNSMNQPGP
In assay [2] the target is von Hippel-Lindau disease tumor suppressor/Receptor-type tyrosine-protein kinase FLT3 (Homo sapiens) (UniProt P36888+P40337). Description: Protac activity at VHL/FLT3 in human SR cells assessed as induction of FLT3 degradation. It counts as cell-based.
Sequence of von Hippel-Lindau disease tumor suppressor/Receptor-type tyrosine-protein kinase FLT3 (Homo sapiens) (P36888 27-993 limits assumed): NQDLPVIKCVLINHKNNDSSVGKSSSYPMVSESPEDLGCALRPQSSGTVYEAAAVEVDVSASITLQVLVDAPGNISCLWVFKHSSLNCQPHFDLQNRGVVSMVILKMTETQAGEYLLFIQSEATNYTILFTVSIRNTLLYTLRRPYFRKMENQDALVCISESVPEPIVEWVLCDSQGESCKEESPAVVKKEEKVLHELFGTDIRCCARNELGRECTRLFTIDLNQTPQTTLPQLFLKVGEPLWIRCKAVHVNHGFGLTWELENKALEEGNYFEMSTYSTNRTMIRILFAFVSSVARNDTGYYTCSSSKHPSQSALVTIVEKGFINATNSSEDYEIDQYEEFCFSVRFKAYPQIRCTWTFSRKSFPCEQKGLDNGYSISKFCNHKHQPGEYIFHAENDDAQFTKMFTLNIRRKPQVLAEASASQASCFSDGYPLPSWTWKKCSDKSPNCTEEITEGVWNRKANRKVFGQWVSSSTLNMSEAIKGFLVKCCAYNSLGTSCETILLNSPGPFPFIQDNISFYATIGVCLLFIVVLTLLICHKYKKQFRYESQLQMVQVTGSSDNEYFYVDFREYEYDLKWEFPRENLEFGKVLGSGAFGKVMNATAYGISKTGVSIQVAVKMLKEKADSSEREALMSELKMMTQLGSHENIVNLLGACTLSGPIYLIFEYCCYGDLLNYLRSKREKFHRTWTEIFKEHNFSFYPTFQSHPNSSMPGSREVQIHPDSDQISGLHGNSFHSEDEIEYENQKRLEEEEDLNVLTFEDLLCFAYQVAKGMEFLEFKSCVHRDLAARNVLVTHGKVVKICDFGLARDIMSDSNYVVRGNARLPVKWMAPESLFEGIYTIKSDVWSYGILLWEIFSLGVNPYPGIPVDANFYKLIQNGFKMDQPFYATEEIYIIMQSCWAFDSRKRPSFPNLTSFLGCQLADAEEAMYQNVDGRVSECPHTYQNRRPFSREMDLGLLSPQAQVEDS
Sequence of von Hippel-Lindau disease tumor suppressor/Receptor-type tyrosine-protein kinase FLT3 (Homo sapiens) (P40337 whole entry partner): as the sequence (P40337 whole entry partner, the tested form may be a part) above
The target in assay [3] is von Hippel-Lindau disease tumor suppressor/Proto-oncogene tyrosine-protein kinase ROS (Homo sapiens) (UniProt P08922+P40337). Description: Protac activity at VHL/ROS1 in human SR cells assessed as induction of ROS1 degradation. It counts as cell-based.
For assay [4], the target named is T1, von Hippel-Lindau disease tumor suppressor/ALK tyrosine kinase receptor/Nucleophosmin. Description: Protac activity at VHL/NPM-ALK fusion protein in human SR cells assessed as induction of ALK degradation 100 nM treated for 24 hrs followed by compound washout and measured after 24 to 48 hrs by Western blot analysis. It counts as cell-based.
Target sequence in this assay (P06748 whole entry partner, the tested form may be a part): as the sequence (P06748 whole entry partner, the tested form may be a part) above
Target sequence in this assay (P40337 whole entry partner, the tested form may be a part): as the sequence (P40337 whole entry partner, the tested form may be a part) above
Target sequence in this assay (Q9UM73 19-1620 limits assumed): as the sequence (Q9UM73 19-1620 limits assumed) above
In assay [5] the target is von Hippel-Lindau disease tumor suppressor/Aurora kinase A (Homo sapiens) (UniProt O14965+P40337). Kind of assay: Protac activity at VHL/Aurora A in human SR cells assessed as induction of Aurora A degradation. It counts as cell-based.
Sequence of von Hippel-Lindau disease tumor suppressor/Aurora kinase A (Homo sapiens) (O14965 whole entry, looked up, the tested form may be a part): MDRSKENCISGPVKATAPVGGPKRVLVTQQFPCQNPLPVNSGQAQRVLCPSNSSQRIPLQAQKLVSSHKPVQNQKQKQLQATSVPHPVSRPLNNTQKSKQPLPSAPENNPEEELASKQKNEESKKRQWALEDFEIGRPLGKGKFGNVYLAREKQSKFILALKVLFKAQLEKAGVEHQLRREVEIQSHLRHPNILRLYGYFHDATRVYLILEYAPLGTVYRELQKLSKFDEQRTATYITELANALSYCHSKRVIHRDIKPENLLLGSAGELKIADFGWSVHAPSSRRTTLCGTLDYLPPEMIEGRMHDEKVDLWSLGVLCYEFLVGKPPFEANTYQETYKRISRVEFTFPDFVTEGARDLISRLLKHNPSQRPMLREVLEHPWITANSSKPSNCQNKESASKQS
Sequence of von Hippel-Lindau disease tumor suppressor/Aurora kinase A (Homo sapiens) (P40337 whole entry, looked up, the tested form may be a part): as the sequence (P40337 whole entry partner, the tested form may be a part) above
Assay [6] addresses T1, von Hippel-Lindau disease tumor suppressor/ALK tyrosine kinase receptor/Nucleophosmin. Description: Protac activity at VHL/NPM-ALK fusion protein in human SR cells assessed as degradation of ALK. It counts as cell-based.
Assay [7] has as its target von Hippel-Lindau disease tumor suppressor/ALK tyrosine kinase receptor/Echinoderm microtubule-associated protein-like 4 (Homo sapiens) (UniProt Q9UM73+Q9HC35+P40337). Kind of assay: Protac activity at VHL/EML4-ALK fusion protein in human NCI-H2228 cells assessed as induction of ALK degradation at 50 to 500 nM. It counts as cell-based. Conditions: dose 50-500 nM.
A short description of assay [8]: cells. Conditions: Homo sapiens, NCI-H1688.
Description: Antiproliferative activity against human NCI-H1688 cells assessed as inhibition of cell proliferation
In assay [9] the target is T1, von Hippel-Lindau disease tumor suppressor/ALK tyrosine kinase receptor/Nucleophosmin. Description: Protac activity at VHL/NPM-ALK fusion protein in human SR cells assessed as reduction in ALK phosphorylation at 10 nM. It counts as cell-based.
Target sequence in this assay (P06748 whole entry partner, the tested form may be a part): as the sequence (P06748 whole entry partner, the tested form may be a part) above
Target sequence in this assay (P40337 whole entry partner, the tested form may be a part): as the sequence (P40337 whole entry partner, the tested form may be a part) above
Target sequence in this assay (Q9UM73 19-1620 limits assumed): as the sequence (Q9UM73 19-1620 limits assumed) above
Assay [10] shares this target. Description: Protac activity at VHL/NPM-ALK fusion protein in human SR cells assessed as degradation of ALK measured after 16 hrs in presence of proteasome inhibitor MG132. It counts as cell-based.
Target sequence in this assay (P06748 whole entry partner, the tested form may be a part): as the sequence (P06748 whole entry partner, the tested form may be a part) above
Target sequence in this assay (P40337 whole entry partner, the tested form may be a part): as the sequence (P40337 whole entry partner, the tested form may be a part) above
Target sequence in this assay (Q9UM73 19-1620 limits assumed): as the sequence (Q9UM73 19-1620 limits assumed) above
The subject of assay [11] is SR. Kind of assay: Antiproliferative activity against human SR cells assessed as reduction in cell growth. It counts as functional, cell-based.
Assay [12] has as its system NCI-H69. Description: Antiproliferative activity against human NCI-H69 cells assessed as inhibition of cell proliferation. It counts as functional, cell-based.
Assay [13] concerns NCI-H2228. Kind of assay: Antiproliferative activity against human NCI-H2228 cells expressing EML4-ALK assessed as reduction in cell viability incubated for 72 hrs by CCK8 assay. It counts as functional, cell-based. To be noted: NCI-H2228, 72 h.
Assay [14] has as its target EML4-ALK (Homo sapiens, UniProt Q9UM73, G1202R). Kind of assay: Inhibition of EML4-ALK G1202R mutant fusion protein (unknown origin) expressed in HEK293T cells. It counts as cell-based.
The target of assay [15] is T1, von Hippel-Lindau disease tumor suppressor/ALK tyrosine kinase receptor/Nucleophosmin. Kind of assay: Protac activity at VHL/NPM-ALK fusion protein in human SR cells assessed as reduction in STAT3 phosphorylation at 1 to 500 nM. To be noted: dose 1-500 nM. It counts as cell-based.
Target sequence in this assay (P06748 whole entry partner, the tested form may be a part): as the sequence (P06748 whole entry partner, the tested form may be a part) above
Target sequence in this assay (P40337 whole entry partner, the tested form may be a part): as the sequence (P40337 whole entry partner, the tested form may be a part) above
Target sequence in this assay (Q9UM73 19-1620 limits assumed): as the sequence (Q9UM73 19-1620 limits assumed) above
For assay [16] the target is unchanged. Kind of assay: Protac activity at VHL/NPM-ALK fusion protein in human SR cells assessed as degradation of ALK measured after 16 hrs in presence of proteasome inhibitor MLN4924. It counts as cell-based.
Target sequence in this assay (P06748 whole entry partner, the tested form may be a part): as the sequence (P06748 whole entry partner, the tested form may be a part) above
Target sequence in this assay (P40337 whole entry partner, the tested form may be a part): as the sequence (P40337 whole entry partner, the tested form may be a part) above
Target sequence in this assay (Q9UM73 19-1620 limits assumed): as the sequence (Q9UM73 19-1620 limits assumed) above
Assay [17] deals with von Hippel-Lindau disease tumor suppressor/Cyclin-G-associated kinase (Homo sapiens) (UniProt O14976+P40337). Description: Protac activity at VHL/GAK in human SR cells assessed as induction of GAK degradation. It counts as cell-based.
The target in assay [18] is von Hippel-Lindau disease tumor suppressor/Insulin-like growth factor 1 receptor (Homo sapiens) (UniProt P08069+P40337). Description: Protac activity at VHL/IGF1R in human SR cells assessed as induction of IGF1R degradation. It counts as cell-based.
Assay [19] addresses von Hippel-Lindau disease tumor suppressor/Uridine-cytidine kinase 2 (Homo sapiens) (UniProt Q9BZX2+P40337). Kind of assay: Protac activity at VHL/UCK2 in human SR cells assessed as induction of UCK2 degradation. It counts as cell-based.
For assay [20], the target named is von Hippel-Lindau disease tumor suppressor/ALK tyrosine kinase receptor/Echinoderm microtubule-associated protein-like 4 (Homo sapiens, UniProt P40337+Q9HC35+Q9UM73, G1202R).
Assay [21] deals with von Hippel-Lindau disease tumor suppressor/ALK tyrosine kinase receptor/Echinoderm microtubule-associated protein-like 4 (Homo sapiens, UniProt Q9UM73+Q9HC35+P40337, G1202R). Description: Protac activity at VHL/EML4-ALK G1202R mutant fusion protein (unknown origin) expressed in HEK293T cells assessed as induction of ALK degradation by Western blot analysis. It counts as cell-based.

The target in assay [22] is NPM/ALK (Nucleophosmin/ALK tyrosine kinase receptor) (Homo sapiens) (UniProt Q9UM73+P06748). Description: Induction of NPM-ALK fusion protein degradation in human SR cells. It counts as cell-based.
The target of assay [23] is T1, von Hippel-Lindau disease tumor suppressor/ALK tyrosine kinase receptor/Nucleophosmin. Description: Protac activity at VHL/NPM-ALK fusion protein in human SR cells assessed as degradation of ALK at 100 nM measured after 24 hrs. It counts as cell-based.
Assay [24] has the same target. Description: Protac activity at VHL/NPM-ALK fusion protein in human SR cells assessed as reduction in ALK phosphorylation at 50 nM. It counts as cell-based. The arrangement: scale not given: the % may be the effect or the level left.

The values that follow come from ChEMBL document CHEMBL4680228 (Eur J Med Chem, 2020).

Active and inactive are the calls of the source. The rule behind the calls is not given here. Some results are limits rather than exact numbers.

Sequence of von Hippel-Lindau disease tumor suppressor/Uridine-cytidine kinase 2 (Homo sapiens) (P40337 whole entry, looked up): as the sequence (P40337 whole entry partner, the tested form may be a part) above
Sequence of von Hippel-Lindau disease tumor suppressor/Uridine-cytidine kinase 2 (Homo sapiens) (Q9BZX2 whole entry, looked up): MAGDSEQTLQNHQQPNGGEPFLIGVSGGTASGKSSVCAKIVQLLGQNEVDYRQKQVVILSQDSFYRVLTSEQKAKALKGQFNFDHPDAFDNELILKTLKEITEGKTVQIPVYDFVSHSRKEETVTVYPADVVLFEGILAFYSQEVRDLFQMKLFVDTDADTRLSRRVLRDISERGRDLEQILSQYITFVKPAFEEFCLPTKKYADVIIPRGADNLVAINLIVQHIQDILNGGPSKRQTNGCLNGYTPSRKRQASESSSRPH

For the compound `COc1cc(N2CCC(NC(=O)CCCCCCCCCC(=O)N[C@H](C(=O)N3C[C@H](O)C[C@H]3C(=O)NCc3ccc(-c4scnc4C)cc3)C(C)(C)C)CC2)ccc1Nc1ncc(Cl)c(Nc2ccccc2P(C)(C)=O)n1`, the Activity entry in [1] was “Tde”. In addition, the result in [2], in [3], in assay [5], in [10], in assay [16] and in assay [17] was inactive. Also, the outcome in assay [18] and in [19] was inactive. For the same compound, the result in assay [4], in assay [7], in assay [9] and in assay [15] was Active. The DC50 in assay [6] was 0.007 µM; in assay [21], less than 0.2 µM. For the same compound, the IC50 worked out at 0.259 µM in [8]; 0.0017 µM in assay [11]; 0.799 µM in assay [12]; 0.046 µM in [13]; 0.146 µM in [14]; 0.166 µM in [20].
With `COc1cc(N2CCC(N3CCN(C)CC3)CC2)ccc1Nc1ncc(Cl)c(Nc2ccccc2P(C)(C)=O)n1` [BRIGATINIB], the IC50 in assay [8] was 0.691 µM; in assay [11] it was 0.0027 µM; in [12], 2.6 µM; in assay [13], 0.0582 µM. The result in assay [22] was inactive.
In the case of `COc1cc(N2CCC(NC(=O)CCCCCCCCCC(=O)N[C@H](C(=O)N3C[C@@H](O)C[C@H]3C(=O)NCc3ccc(-c4scnc4C)cc3)C(C)(C)C)CC2)ccc1Nc1ncc(Cl)c(Nc2ccccc2P(C)(C)=O)n1`, the result in assay [23] was inactive. In addition, the Activity in assay [24] worked out at 100%. Moreover, the values for the IC50 in assay [11], in [13] and in assay [20] were 0.0055 µM, 0.114 µM and 0.608 µM, respectively. Besides, the outcome in [15] was Active.
